Results from BigSolDB 2.1.

CC[C@H](C)[C@H]1O[C@]2(CC[C@@H]1C)C[C@@H]1C[C@@H](C/C=C(\C)[C@@H](O[C@H]3C[C@H](OC)[C@@H](O[C@H]4C[C@H](OC)[C@@H](O)[C@H](C)O4)[C@H](C)O3)[C@@H](C)/C=C/C=C3\CO[C@@H]4[C@H](O)C(C)=C[C@@H](C(=O)O1)[C@]34O)O2
solubility (mole fraction) (in isopropanol, 293.2 K): 0.0675
solubility (mole fraction) (in isopropanol, 298.2 K): 0.0823
solubility (mole fraction) (in isopropanol, 303.2 K): 0.0915
solubility (mole fraction) (in isopropanol, 308.2 K): 0.0967
solubility (mole fraction) (in isopropanol, 313.2 K): 0.106
solubility (mole fraction) (in n-propanol, 293.2 K): 0.089
solubility (mole fraction) (in n-propanol, 298.2 K): 0.105
solubility (mole fraction) (in n-propanol, 303.2 K): 0.115
solubility (mole fraction) (in n-propanol, 308.2 K): 0.122
solubility (mole fraction) (in n-propanol, 313.2 K): 0.136
solubility (mole fraction) (in water, 293.2 K): 5.1e-06
solubility (mole fraction) (in water, 298.2 K): 5.6e-06
solubility (mole fraction) (in water, 303.2 K): 6.1e-06
solubility (mole fraction) (in water, 308.2 K): 6.5e-06
solubility (mole fraction) (in water, 313.2 K): 6.9e-06
